Assay results as given in patent EP0745599A2, “1-(3-Heterocyclylphenyl)-s-triazine-2,4,6-oxo or thiotrione herbicidal agents” (American Cyanamid Company, priority 1995, dated 1996).

How the values were obtained:
Type in all cases: in vivo
Conditions in all cases: rated four to five weeks after treatment
[1] = tested on: ABUTILON THEOPHRASTI, MEDIC.; assay: Postemergence herbicidal evaluation, ABUTH (Velvetleaf)
Procedure: In the tests, seedling plants are grown in jiffy flats for about two weeks. The test compounds are dispersed in 50/50 acetone/water mixtures containing 0.5% TWEEN®20, a polyoxyethylene sorbitan monolaurate surfactant of Atlas Chemical Industries, in sufficient quantities to provide the equivalent of about 0.125 kg to 0.500 kg per hectare of active compound when applied to the plants through a spray nozzle operating at 40 psi for a predetermined time. After spraying, the plants are placed on greenhouse benches and are cared for in the usual manner, commensurate with conventional greenhouse practices. From four to five weeks after treatment, the seedling plants are examined and rated according to the rating system set forth below. Where more than one test is involved for a given compound, the data are averaged.
(§1) Results of herbicide evaluation are expressed on a rating scale (0-9). The scale is based upon a visual observation of plant stand, vigor, malformation, size, chlorosis and overall plant appearance as compared with a control.

[2] = tested on: ORYZA SATIVA, L. TEBONNET; assay: Preemergence herbicidal evaluation, ORYSAT (Rice, Tebonnet)
Text: as §1
(§2) The preemergence herbicidal activity of the test compounds of the present invention is exemplified by the following tests in which the seeds of a variety of monocotyledonous and dicotyledonous plants are separately mixed with potting soil and planted on top of approximately one inch of soil in separate pint cups. After planting, the cups are sprayed with the selected aqueous acetone solution containing test compound in sufficient quantity to provide the equivalent of about 0.125 to 0.50 kg per hectare of test compound per cup. The treated cups are then placed on greenhouse benches, watered and cared for in accordance with conventional greenhouse procedures. From four to five weeks after treatment, the tests are terminated and each cup is examined and rated according to the rating system provided in Example 42.

[3] = tested on: GLYCINE MAX(L)MERR. CV. WILLIAMS; assay: Preemergence herbicidal evaluation, GLXMAW (Soybean, Williams)
Text: as §1, §2

[4] = tested on: GALIUM APARINE; assay: Preemergence herbicidal evaluation, GALAP (Galium)
Text: as §1, §2

[5] = tested on: ZEA MAYS L.; assay: Preemergence herbicidal evaluation, ZEAMX (Corn, Field)
Text: as §1, §2

[6] = tested on: TRITICUM AESTIVUM, CV. APOLLO; assay: Preemergence herbicidal evaluation, TRZAWO (Wheat, Winter, CV. APOLLO)
Text: as §1, §2

[7] = tested on: CHENOPODIUM ALBUM, L.; assay: Preemergence herbicidal evaluation, CHEAL (Lambsquarters, Common)
Text: as §1, §2

[8] = tested on: IPOMOEA SPP.; assay: Preemergence herbicidal evaluation, IPOSS (Morningglory Spp.)
Text: as §1, §2

[9] = tested on: ECHINOCHLOA CRUS-GALLI, (L) BEAU; assay: Preemergence herbicidal evaluation, ECHCG (Barnyardgrass)
Text: as §1, §2

[10] = tested on: SETARIA VIRIDIS, (L) BEAU; assay: Preemergence herbicidal evaluation, SETVI (Foxtail, Green)
Text: as §1, §2

Row | Compound | Herbicide rating (0-9) ABUTH ([1]; 0.125 kg/ha) | Herbicide rating (0-9) ABUTH ([1]; 0.250 kg/ha) | Herbicide rating (0-9) ABUTH ([1]; 0.500 kg/ha) | Herbicide rating (0-9) GLXMAW ([3]; 0.125 kg/ha) | Herbicide rating (0-9) GLXMAW ([3]; 0.250 kg/ha) | Herbicide rating (0-9) GLXMAW ([3]; 0.500 kg/ha) | Herbicide rating (0-9) TRZAWO ([6]; 0.125 kg/ha) | Herbicide rating (0-9) TRZAWO ([6]; 0.250 kg/ha) | Herbicide rating (0-9) TRZAWO ([6]; 0.500 kg/ha) | Herbicide rating (0-9) CHEAL ([7]; 0.125 kg/ha) | Herbicide rating (0-9) CHEAL ([7]; 0.250 kg/ha) | Herbicide rating (0-9) CHEAL ([7]; 0.500 kg/ha) | other results
1 | COC(=O)Cn1c(=O)n(C)c(=O)n(-c2cc(N3C(=O)C4=C(CCCC4)C3=O)c(F)cc2Cl)c1=O [Compound 1, Methyl 3-[2-Chloro-5-(1-cyclohexene-1,2-dicarboximido)-4-fluorophenyl]tetrahydro-5-methyl-2,4,6-trioxo-s-triazine-1(2H)-acetate] | 9.0 | 9.0 | 9.0 | 0.0 | 0.0 | 0.0 | 0.0 | 0.0 | 0.0 | 9.0 | 9.0 | 9.0 | Herbicide rating (0-9) ORYSAT ([2]; 0.125 kg/ha): 0.0; Herbicide rating (0-9) ORYSAT ([2]; 0.250 kg/ha): 0.0; Herbicide rating (0-9) ORYSAT ([2]; 0.500 kg/ha): 0.0; Herbicide rating (0-9) GALAP ([4]; 0.250 kg/ha): 0.0; Herbicide rating (0-9) GALAP ([4]; 0.500 kg/ha): 0.0; Herbicide rating (0-9) ZEAMX ([5]; 0.125 kg/ha): 0.0; Herbicide rating (0-9) ZEAMX ([5]; 0.250 kg/ha): 0.0; Herbicide rating (0-9) ZEAMX ([5]; 0.500 kg/ha): 0.0
2 | Cn1c(=O)n(CC(=O)OC(C)(C)C)c(=O)n(-c2cc(N3C(=O)C4=C(CCCC4)C3=O)c(F)cc2Cl)c1=O [Compound 2, Tert-butyl 3-[2-chloro-5-(1-cyclohexene-1,2-dicarboximido)-4-fluorophenyl]tetrahydro-5-methyl-2,4,6-trioxo-s-triazine-1(2H)-acetate] | 9.0 | 9.0 | 9.0 | 0.0 | 0.0 | 0.0 | 1.0 | 1.0 | 1.0 | 9.0 | 9.0 | 9.0 | Herbicide rating (0-9) IPOSS ([8]; 0.125 kg/ha): 6.0; Herbicide rating (0-9) IPOSS ([8]; 0.250 kg/ha): 6.0; Herbicide rating (0-9) IPOSS ([8]; 0.500 kg/ha): 6.0; Herbicide rating (0-9) ECHCG ([9]; 0.125 kg/ha): 0.0; Herbicide rating (0-9) ECHCG ([9]; 0.250 kg/ha): 0.0; Herbicide rating (0-9) ECHCG ([9]; 0.500 kg/ha): 0.0; Herbicide rating (0-9) SETVI ([10]; 0.125 kg/ha): 0.0; Herbicide rating (0-9) SETVI ([10]; 0.250 kg/ha): 0.0; Herbicide rating (0-9) SETVI ([10]; 0.500 kg/ha): 0.0
